Assay results taken from the supplement of paper PMC10307832.

Key:
Assay in all cases: relative viability (nuclei count vs DMSO), 5 days (fraction); higher = more cells survive
IU1-47 + Luminespib = compound: CC1=CC(=C(N1C2=CC=C(C=C2)Cl)C)C(=O)CN3CCCCC3 [IU1-47] + CCNC(=O)c1noc(-c2cc(C(C)C)c(O)cc2O)c1-c1ccc(CN2CCOCC2)cc1 [Luminespib] (partner 0.01 µM)
How it was run: (§1)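 Relative viability divides the nuclei count in treated wells by that in vehicle wells. Lung cancer cell lines were seeded in 1536-well plates, dosed by pin tool the next day, and fixed and stained after 5 days in one step with final 0.05% Triton X-100, 1% formaldehyde and 1 ug/ml Hoechst. Dosing was a single drug or a fixed anchor-drug dose plus five library-drug doses (not always all listed) in √10 steps, and values are medians of duplicate plates imaged at 4×.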

IU1-47 + Phenformin = compound: CC1=CC(=C(N1C2=CC=C(C=C2)Cl)C)C(=O)CN3CCCCC3 [IU1-47] + N=C(N)NC(=N)NCCc1ccccc1 [Phenformin] (partner 250 µM)
How it was run: as §1

IU1-47 + Decitabine = compound: CC1=CC(=C(N1C2=CC=C(C=C2)Cl)C)C(=O)CN3CCCCC3 [IU1-47] + Nc1ncn([C@H]2C[C@H](O)[C@@H](CO)O2)c(=O)n1 [Decitabine] (partner 2 µM)
How it was run: as §1

FG-4592 + Linsitinib = compound: Cc1nc(C(=O)NCC(=O)O)c(O)c2ccc(Oc3ccccc3)cc12 [FG-4592] + C[C@]1(O)C[C@@H](c2nc(-c3ccc4ccc(-c5ccccc5)nc4c3)c3c(N)nccn32)C1 [Linsitinib] (partner 1 µM)
How it was run: as §1

Cell Line	relative viability (IU1-47 + Luminespib; first compound 0.08 µM)	relative viability (IU1-47 + Luminespib; first compound 0.253 µM)	relative viability (IU1-47 + Luminespib; first compound 0.8 µM)	relative viability (IU1-47 + Luminespib; first compound 2.53 µM)	relative viability (IU1-47 + Luminespib; first compound 8 µM)	relative viability (IU1-47 + Phenformin; first compound 0.08 µM)	relative viability (IU1-47 + Phenformin; first compound 0.253 µM)	relative viability (IU1-47 + Phenformin; first compound 0.8 µM)	relative viability (IU1-47 + Phenformin; first compound 2.53 µM)	relative viability (IU1-47 + Phenformin; first compound 8 µM)	relative viability (IU1-47 + Decitabine; first compound 0.08 µM)	relative viability (IU1-47 + Decitabine; first compound 0.253 µM)	relative viability (IU1-47 + Decitabine; first compound 0.8 µM)	relative viability (IU1-47 + Decitabine; first compound 2.53 µM)	relative viability (IU1-47 + Decitabine; first compound 8 µM)	relative viability (FG-4592 + Linsitinib; first compound 0.08 µM)	relative viability (FG-4592 + Linsitinib; first compound 0.253 µM)	relative viability (FG-4592 + Linsitinib; first compound 0.8 µM)	relative viability (FG-4592 + Linsitinib; first compound 2.53 µM)	relative viability (FG-4592 + Linsitinib; first compound 8 µM)
NCI-H2342	0.698	0.679	0.775	0.713	0.745	0.628	0.558	0.694	0.552	0.593	0.81	0.766	0.755	0.688	0.747	–	–	–	–	–
SK-MES-1	0.965	0.891	0.87	0.897	0.839	0.729	0.76	0.66	0.662	0.575	0.329	0.405	0.3	0.409	0.38	1.07	0.895	1.06	1.07	0.957
HCC-366	–	–	–	–	–	0.648	0.561	0.648	0.584	0.594	0.375	0.382	0.349	0.389	0.272	0.443	0.571	0.551	0.693	0.517
201T	1.1	1.08	1.15	–	1.07	0.419	0.435	0.486	–	0.362	0.891	0.864	0.943	0.867	0.856	0.943	0.963	0.897	1.08	1.02
HCC-827	0.819	0.588	0.818	0.573	0.648	0.44	0.425	0.416	0.464	0.37	0.336	0.323	0.351	0.31	0.31	1.02	0.895	0.984	0.975	0.945
NCI-H647	0.409	0.276	0.125	0.221	0.176	0.449	0.597	–	0.553	0.238	0.454	0.487	0.462	0.39	0.4	1.18	1.1	1.3	1.32	1.16
NCI-H2023	0.777	0.902	0.913	0.885	0.768	0.459	0.387	0.411	0.472	0.378	0.182	0.212	0.215	0.248	0.225	0.611	0.575	0.646	0.77	0.685
NCI-H520	0.259	0.238	0.248	0.285	0.248	0.602	0.484	0.59	0.626	0.346	0.484	0.507	0.469	0.513	0.416	0.85	0.895	1.04	0.953	0.764
RERF-LC-KJ	1.22	1.3	1.34	1.24	1.39	0.415	0.423	0.421	0.493	0.411	0.784	0.912	0.673	0.639	0.578	0.835	0.958	0.919	0.901	0.82
A-427	0.999	0.89	0.971	1.04	0.872	0.342	0.313	0.306	–	0.229	0.556	0.583	0.517	0.547	0.5	1.06	1.05	1.06	1.14	1.1
NCI-H441	0.328	0.336	0.478	0.379	0.343	0.994	0.978	0.787	0.887	0.787	0.254	0.257	0.212	0.254	0.234	0.451	0.498	0.477	0.57	0.562
NCI-H1703	–	–	–	–	–	–	–	–	–	–	–	–	–	–	–	0.837	0.55	0.679	0.755	0.617
NCI-H1792	0.573	0.358	0.515	0.308	0.568	0.302	0.249	0.197	0.174	0.183	0.625	0.639	0.611	0.497	0.371	0.522	0.411	0.487	0.577	0.567
Calu-6	–	–	–	–	–	–	–	–	–	–	–	–	–	–	–	0.863	0.942	0.941	0.859	0.993
SK-LU-1	0.202	0.197	0.204	0.238	0.207	0.574	0.507	0.487	0.581	0.419	0.57	0.695	0.692	0.56	0.543	1.02	0.89	0.971	–	0.928
PC-3 [JPC-3]	0.822	0.695	0.723	0.466	0.603	0.498	0.463	0.44	0.496	0.429	0.905	0.935	0.886	0.834	0.888	0.965	0.974	0.969	1.04	1.01
EMC-BAC-2	1.4	1.32	1.28	1.26	0.93	0.548	0.569	0.53	0.627	0.409	1.07	1.03	0.996	1.07	0.924	0.846	0.767	0.767	0.836	0.833
LK-2	0.235	0.165	0.175	0.213	0.17	0.467	0.504	0.432	0.579	0.239	0.354	0.35	0.34	0.372	0.179	0.434	0.615	0.383	0.662	0.424
